Measurements as given in the supplement of paper PMC13207355.
Where a name gives a salt, the structure may show the parent alone.

Legend:
Details in all cases: exposure time: 72 h
[1] = test system: FT3469 (normal neural stem cell line); experiment: surviving fraction (nuclei count normalised to DMSO); higher = more cells surviving (less toxic)
[2] = test system: E34 (patient-derived glioblastoma stem cells of proneural subtype); experiment: as above
[3] = test system: E21 (patient-derived glioblastoma stem cells of mesenchymal subtype); experiment: as above
[4] = test system: E28 (patient-derived glioblastoma stem cells of classical subtype); experiment: as above
[5] = test system: E31 (patient-derived glioblastoma stem cells of proneural subtype); experiment: as above
[6] = test system: E13 (patient-derived glioblastoma stem cells of classical subtype); experiment: as above
[7] = test system: E57 (patient-derived glioblastoma stem cells of mesenchymal subtype); experiment: as above
[8] = test system: FT3469; experiment: phenotypic distance (Euclidean, principal components) from DMSO controls (arbitrary units); higher = stronger morphological change
[9] = test system: E34; experiment: as above
[10] = test system: E21; experiment: as above
[11] = test system: E28; experiment: as above
[12] = test system: E31; experiment: as above
[13] = test system: E13; experiment: as above
[14] = test system: E57; experiment: as above
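Throughout, for phenotypic distance (Euclidean, principal components) from DMSO controls: cell Painting imaging in 384-well plates, CellProfiler features reduced to at least 20 principal components, Euclidean distance versus same-plate DMSO vehicle wells (0.1% v/v), median over six images per well.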
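Throughout, for surviving fraction (nuclei count normalised to DMSO): nuclei counted by high-content imaging of Hoechst-stained cells in laminin-coated 384-well plates, relative to 0.1% DMSO vehicle wells, with staurosporine as cell-death control.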

Cc1cc(CN)cc(C)c1NC(=O)c1ccc(-c2cc(Cl)ccc2Cl)o1
surviving fraction ([1]; 3000 nM): 0.883
surviving fraction ([2]; 3000 nM): 0.829
surviving fraction ([3]; 3000 nM): 0.862
surviving fraction ([4]; 3000 nM): 0.919
surviving fraction ([5]; 3000 nM): 0.856
surviving fraction ([6]; 3000 nM): 0.865
surviving fraction ([7]; 3000 nM): 0.964
phenotypic distance ([8]; 3000 nM): 0.784
phenotypic distance ([9]; 3000 nM): 0.825
phenotypic distance ([10]; 3000 nM): 0.968
phenotypic distance ([11]; 3000 nM): 0.815
phenotypic distance ([12]; 3000 nM): 1.86
phenotypic distance ([13]; 3000 nM): 1.34
phenotypic distance ([14]; 3000 nM): 1.29

COc1cc2nc(N3CCN(C(=O)c4ccco4)CC3)nc(N)c2cc1OC [Prazosin hydrochloride]
surviving fraction ([1]; 4.11523 nM): 1
surviving fraction ([1]; 12.34567901 nM): 1.14
surviving fraction ([1]; 37.037 nM): 1.03
surviving fraction ([1]; 111.1111111 nM): 1.05
surviving fraction ([1]; 333.333 nM): 1.14
surviving fraction ([1]; 1000 nM): 1.12
surviving fraction ([1]; 3000 nM): 1.06
surviving fraction ([2]; 4.11523 nM): 1.04
surviving fraction ([2]; 12.34567901 nM): 0.994
surviving fraction ([2]; 37.037 nM): 1.14
surviving fraction ([2]; 111.1111111 nM): 0.986
surviving fraction ([2]; 333.333 nM): 1.11
surviving fraction ([2]; 1000 nM): 0.837
surviving fraction ([2]; 3000 nM): 1.04
surviving fraction ([3]; 4.11523 nM): 1.03
surviving fraction ([3]; 12.34567901 nM): 1.03
surviving fraction ([3]; 37.037 nM): 1
surviving fraction ([3]; 111.1111111 nM): 1.04
surviving fraction ([3]; 333.333 nM): 1.11
surviving fraction ([3]; 1000 nM): 0.938
surviving fraction ([3]; 3000 nM): 0.912
surviving fraction ([4]; 4.11523 nM): 1.07
surviving fraction ([4]; 12.34567901 nM): 0.881
surviving fraction ([4]; 37.037 nM): 1.17
surviving fraction ([4]; 111.1111111 nM): 0.956
surviving fraction ([4]; 333.333 nM): 1.2
surviving fraction ([4]; 1000 nM): 0.907
surviving fraction ([4]; 3000 nM): 0.976
surviving fraction ([5]; 4.11523 nM): 0.988
surviving fraction ([5]; 12.34567901 nM): 1.19
surviving fraction ([5]; 37.037 nM): 1.13
surviving fraction ([5]; 111.1111111 nM): 1.03
surviving fraction ([5]; 333.333 nM): 1.04
surviving fraction ([5]; 1000 nM): 1.07
surviving fraction ([5]; 3000 nM): 1
surviving fraction ([6]; 4.11523 nM): 1.11
surviving fraction ([6]; 12.34567901 nM): 0.996
surviving fraction ([6]; 37.037 nM): 1.07
surviving fraction ([6]; 111.1111111 nM): 0.955
surviving fraction ([6]; 333.333 nM): 1.04
surviving fraction ([6]; 1000 nM): 1.03
surviving fraction ([6]; 3000 nM): 0.815
surviving fraction ([7]; 4.11523 nM): 1.07
surviving fraction ([7]; 12.34567901 nM): 1.02
surviving fraction ([7]; 37.037 nM): 1.09
surviving fraction ([7]; 111.1111111 nM): 0.961
surviving fraction ([7]; 333.333 nM): 1
surviving fraction ([7]; 1000 nM): 0.915
surviving fraction ([7]; 3000 nM): 0.97
phenotypic distance ([8]; 4.11523 nM): 0.634
phenotypic distance ([8]; 12.34567901 nM): 0.798
phenotypic distance ([8]; 37.037 nM): 0.909
phenotypic distance ([8]; 111.1111111 nM): 0.541
phenotypic distance ([8]; 333.333 nM): 0.436
phenotypic distance ([8]; 1000 nM): 0.748
phenotypic distance ([8]; 3000 nM): 0.762
phenotypic distance ([9]; 4.11523 nM): 0.522
phenotypic distance ([9]; 12.34567901 nM): 0.593
phenotypic distance ([9]; 37.037 nM): 0.611
phenotypic distance ([9]; 111.1111111 nM): 0.647
phenotypic distance ([9]; 333.333 nM): 0.638
phenotypic distance ([9]; 1000 nM): 0.628
phenotypic distance ([9]; 3000 nM): 0.776
phenotypic distance ([10]; 4.11523 nM): 0.712
phenotypic distance ([10]; 12.34567901 nM): 0.547
phenotypic distance ([10]; 37.037 nM): 0.834
phenotypic distance ([10]; 111.1111111 nM): 0.524
phenotypic distance ([10]; 333.333 nM): 0.736
phenotypic distance ([10]; 1000 nM): 0.384
phenotypic distance ([10]; 3000 nM): 0.699
phenotypic distance ([11]; 4.11523 nM): 0.643
phenotypic distance ([11]; 12.34567901 nM): 0.664
phenotypic distance ([11]; 37.037 nM): 1.1
phenotypic distance ([11]; 111.1111111 nM): 0.589
phenotypic distance ([11]; 333.333 nM): 0.766
phenotypic distance ([11]; 1000 nM): 1.03
phenotypic distance ([11]; 3000 nM): 0.426
phenotypic distance ([12]; 4.11523 nM): 0.642
phenotypic distance ([12]; 12.34567901 nM): 0.488
phenotypic distance ([12]; 37.037 nM): 0.739
phenotypic distance ([12]; 111.1111111 nM): 0.653
phenotypic distance ([12]; 333.333 nM): 0.984
phenotypic distance ([12]; 1000 nM): 0.431
phenotypic distance ([12]; 3000 nM): 0.892
phenotypic distance ([13]; 4.11523 nM): 0.601
phenotypic distance ([13]; 12.34567901 nM): 3.49
phenotypic distance ([13]; 37.037 nM): 2.1
phenotypic distance ([13]; 111.1111111 nM): 0.55
phenotypic distance ([13]; 333.333 nM): 0.666
phenotypic distance ([13]; 1000 nM): 0.512
phenotypic distance ([13]; 3000 nM): 2.04
phenotypic distance ([14]; 4.11523 nM): 0.592
phenotypic distance ([14]; 12.34567901 nM): 0.576
phenotypic distance ([14]; 37.037 nM): 0.642
phenotypic distance ([14]; 111.1111111 nM): 0.745
phenotypic distance ([14]; 333.333 nM): 0.475
phenotypic distance ([14]; 1000 nM): 0.697
phenotypic distance ([14]; 3000 nM): 0.95
